# In US20040063670A1, “Use of bisphosphonates for pain treatment” (priority 2000, published 2004):
# What was measured:
# Assay type in all cases: in vivo
# [1] = tested on: rat model of neuropathic pain; assay: Neuropathic mechanical hyperalgesia (partial ligation of the left sciatic nerve)
# Experimental: Mechanical hyperalgesia was examined in a rat model of neuropathic pain induced by partial ligation of the left sciatic nerve. Approximately 14 days following surgery mechanical withdrawal thresholds of both the ligated (ipsilateral) and non-ligated (contralateral) paw were measured prior to (predose) and then from 10 min to 6 h following drug or vehicle administration. Reversal of hyperalgesia at each time point was calculated according to the formula: [formula]
# (§1) All experiments were carried out using groups of 6 animals. Stock concentrations of drugs were dissolved in distilled water and subsequent dilutions were made in 0.9% saline for subcutaneous administration in a volume of 4 mlkg^−1. All drugs were made up in plastic vials and kept in the dark.
# (§2) Statistical analysis was carried out on withdrawal threshold readings (g) using ANOVA with repeated measures followed by Tukey's HSD test. Efficacy refers to the maximal reversal of hyperalgesia observed at the doses used.
# [2] = tested on: rat model of inflammatory pain; assay: Inflammatory mechanical hyperalgesia (FCA, Randal-Sellito paw withdrawal threshold); settings: for maximal reversal of mechanical hyperalgesia: ipsilateral paw, 24 h after FCA
# Experimental: Mechanical hyperalgesia was examined in a rat model of inflammatory pain. Paw withdrawal thresholds to an increasing pressure stimulus were measured by the Randal-Sellito technique using an analgesymeter (Ugo Basile, Milan), in naïve animals prior to an intraplantar injection of complete Freund's complete adjuvant (FCA) into the left hind paw. 24 h later paw withdrawal thresholds were measured again prior to (predose) and then from 10 min to 6 h following drug or vehicle administration. Reversal of hyperalgesia in the ipsilateral paw was calculated according to the formula: [formula]
# as §1, §2
# [3] = tested on: rat model of bone cancer pain; assay: Rat model of bone cancer pain (intra-tibial MRMZ1 mammary gland carcinoma cells)
# Experimental: Adult female rats were given intra-tibial injections of MRMZ1 rat mammary gland carcinoma cells (3 μl, 10^7 cells/ml). These animals gradually developed mechanical hyperalgesia, mechanical allodynia (skin sensitivity to non-noxious stimuli) and hind limb sparing, beginning on day 12-14 following cell injection.
# [4] = 10 and 30 μg/kg s.c. 3 times a week from the day of cell injection
structure (smiles),measurement,setting,value
"O=P(O)(O)C(Cl)(Cl)P(=O)(O)O [Clodronate, 1,1-dichloromethane-1,1-diphosphonic acid]",activity in the model of neuropathic pain (reversal of hyperalgesia),[1]; 0.3-10 mgkg^−1 s.c.,inactive
same,contralateral paw withdrawal thresholds,[1]; 0.3-10 mgkg^−1 s.c.,some reductions
same,reversing inflammatory mechanical hyperalgesia,[2]; 0.3-10 mgkg^−1 s.c.,ineffective
same,paw withdrawal thresholds,[2]; highest dose tested of 0.3-10 mgkg^−1 s.c.,slight reductions
"NCCC(O)(P(=O)(O)O)P(=O)(O)O [Pamidronate, 3-amino-1-hydroxypropane-1,1-diphosphonic acid]",contralateral paw withdrawal thresholds,[1]; 0.03-1 mgkg^−1 s.c.,some reductions
same,maximal reversal of hyperalgesia,[1]; 0.03-1 mgkg^−1 s.c.,20%
same,reversing inflammatory mechanical hyperalgesia,[2]; 0.03-1 mgkg^−1 s.c.,ineffective
same,paw withdrawal thresholds,[2]; highest dose tested of 0.03-1 mgkg^−1 s.c.,slight reductions
"O=P(O)(O)C(O)(Cn1ccnc1)P(=O)(O)O [Zoledronate, 1-hydroxy-2-(imidazol-1-yl)ethane-1,1-diphosphonic acid]",hind limb sparing,[3]; [4],profound inhibition
same,mechanical allodynia,[3]; [4],profound inhibition
same,development of hind limb sparing over 19 days,"[3]; higher dose (30 μg/kg s.c. 3 times a week), 19 days following intra-tibial cell injection",did not develop any sign of hind limb sparing
same,acute effect of a single injection,[3]; single injection 100 μg/kg s.c. on day 19,no acute effect
same,time to maximal reversal of mechanical hyperalgesia,[1]; 0.003-0.1 mgkg^−1 s.c.,≤ 30 min
same,reversal of mechanical hyperalgesia (maximal),"[1]; 0.003-0.1 mgkg^−1 s.c., about 14 days after surgery",40%
same,contralateral paw withdrawal thresholds,[1]; highest dose of 0.003-0.1 mgkg^−1 s.c.,significant reduction
same,time to maximal reversal of mechanical hyperalgesia,[2]; 0.003-0.1 mgkg^−1 s.c.,≤ 30 min
same,activity 3 h following administration (duration),"[2]; 0.003-0.1 mgkg^−1 s.c., 3 h after administration",no significant activity
same,maximal reversal of mechanical hyperalgesia,[2]; 0.003-0.1 mgkg^−1 s.c.,100%
same,maximal reversal of mechanical hyperalgesia,"[2]; 0.003-0.1 mgkg^−1 s.c., listed as zoledronic acid",about 100%
same,contralateral activity,"[2]; highest dose of 0.003-0.1 mgkg^−1 s.c., contralateral paw",Some contralateral activity
CN1CC[C@]23c4c5ccc(O)c4O[C@H]2[C@@H](O)C=C[C@H]3[C@H]1C5 [morphine],mechanical allodynia,"[3]; acute treatment, 1-10 mg/kg s.c.",dose dependent reduction
same,hind limb sparing,"[3]; acute treatment, highest dose only (of 1-10 mg/kg s.c.)",significant reduction
